Measured values as given in ChEMBL document CHEMBL4507275, “Data for DCP probe BI-2545” (2021).

Experiments:
[1] = molecular target: Receptor-interacting serine/threonine-protein kinase 2 (Homo sapiens) (UniProt O43353); conditions: Compound concentration 1000.0 nM
[2] = molecular target: Receptor-type tyrosine-protein kinase FLT3 (Homo sapiens) (UniProt P36888); conditions: Compound concentration 1000.0 nM
[3] = molecular target: STE20-like serine/threonine-protein kinase (Homo sapiens) (UniProt Q9H2G2); conditions: Compound concentration 1000.0 nM
[4] = molecular target: Serine/threonine-protein kinase B-raf (Homo sapiens) (UniProt P15056); conditions: Compound concentration 1000.0 nM
[5] = molecular target: Ephrin type-B receptor 4 (Homo sapiens) (UniProt P54760); conditions: Compound concentration 1000.0 nM
[6] = molecular target: Mitogen-activated protein kinase kinase kinase 4 (Homo sapiens) (UniProt Q9Y6R4); conditions: Compound concentration 1000.0 nM
[7] = molecular target: Receptor tyrosine-protein kinase erbB-4 (Homo sapiens) (UniProt Q15303); conditions: Compound concentration 1000.0 nM
[8] = molecular target: Tyrosine-protein kinase BTK (Homo sapiens) (UniProt Q06187); conditions: Compound concentration 1000.0 nM
[9] = system: Receptor-type tyrosine-protein kinase FLT3 (Homo sapiens), P36888 [UNDEFINED MUTATION]; conditions: Compound concentration 1000.0 nM
[10] = molecular target: Serine/threonine-protein kinase SBK1 (Homo sapiens) (UniProt Q52WX2); conditions: Compound concentration 1000.0 nM
[11] = molecular target: Casein kinase I isoform epsilon (Homo sapiens) (UniProt P49674); conditions: Compound concentration 1000.0 nM
[12] = molecular target: Sodium-dependent noradrenaline transporter (Homo sapiens) (UniProt P23975); conditions: Compound concentration 10.0 uM
[13] = molecular target: Interleukin-1 receptor-associated kinase 4 (Homo sapiens) (UniProt Q9NWZ3); conditions: Compound concentration 1000.0 nM
[14] = molecular target: Epidermal growth factor receptor (Homo sapiens) (UniProt P00533); conditions: Compound concentration 1000.0 nM
[15] = molecular target: Serine/threonine-protein kinase PLK1 (Homo sapiens) (UniProt P53350); conditions: Compound concentration 1000.0 nM
[16] = molecular target: Phosphorylase b kinase regulatory subunit alpha, liver isoform (Homo sapiens) (UniProt P46019); conditions: Compound concentration 1000.0 nM
[17] = molecular target: Mitotic checkpoint serine/threonine-protein kinase BUB1 (Homo sapiens) (UniProt O43683); conditions: Compound concentration 1000.0 nM
[18] = molecular target: Serine/threonine-protein kinase Nek4 (Homo sapiens) (UniProt P51957); conditions: Compound concentration 1000.0 nM
[19] = system: Hepatocyte growth factor receptor (Homo sapiens), P08581 [Y1235D]; conditions: Compound concentration 1000.0 nM
[20] = molecular target: Receptor tyrosine-protein kinase erbB-2 (Homo sapiens) (UniProt P04626); conditions: Compound concentration 1000.0 nM
[21] = molecular target: Serine/threonine-protein kinase 35 (Homo sapiens) (UniProt Q8TDR2); conditions: Compound concentration 1000.0 nM
[22] = molecular target: SRSF protein kinase 1 (Homo sapiens) (UniProt Q96SB4); conditions: Compound concentration 1000.0 nM
[23] = molecular target: Serine/threonine-protein kinase Sgk1 (Homo sapiens) (UniProt O00141); conditions: Compound concentration 1000.0 nM
[24] = molecular target: Cyclin-dependent kinase 15 (Homo sapiens) (UniProt Q96Q40); conditions: Compound concentration 1000.0 nM
[25] = molecular target: Histamine H3 receptor (Homo sapiens) (UniProt Q9Y5N1); conditions: Compound concentration 10.0 uM
[26] = molecular target: Uncharacterized serine/threonine-protein kinase SBK3 (Homo sapiens) (UniProt P0C264); conditions: Compound concentration 1000.0 nM
[27] = molecular target: 5-hydroxytryptamine receptor 5A (Homo sapiens) (UniProt P47898); conditions: Compound concentration 10.0 uM
[28] = molecular target: Serine/threonine-protein kinase MARK1 (Homo sapiens) (UniProt Q9P0L2); conditions: Compound concentration 1000.0 nM
[29] = molecular target: Mitogen-activated protein kinase kinase kinase 6 (Homo sapiens) (UniProt O95382); conditions: Compound concentration 1000.0 nM
[30] = molecular target: Tyrosine-protein kinase SYK (Homo sapiens) (UniProt P43405); conditions: Compound concentration 1000.0 nM
[31] = molecular target: Rho-associated protein kinase 2 (Homo sapiens) (UniProt O75116); conditions: Compound concentration 1000.0 nM
[32] = molecular target: Ribosomal protein S6 kinase alpha-4 (Homo sapiens) (UniProt O75676); conditions: Compound concentration 1000.0 nM
[33] = molecular target: Alpha-2B adrenergic receptor (Homo sapiens) (UniProt P18089); conditions: Compound concentration 10.0 uM
[34] = molecular target: Phosphatidylinositol 4,5-bisphosphate 3-kinase catalytic subunit alpha isoform (Homo sapiens) (UniProt P42336); conditions: Compound concentration 1000.0 nM
[35] = molecular target: Calcium-dependent protein kinase 1 (Plasmodium falciparum) (UniProt P62344); conditions: Compound concentration 1000.0 nM
[36] = system: Proto-oncogene tyrosine-protein kinase receptor Ret (Homo sapiens), P07949 [V804L]; conditions: Compound concentration 1000.0 nM
[37] = molecular target: Serine/threonine-protein kinase 4 (Homo sapiens) (UniProt Q13043); conditions: Compound concentration 1000.0 nM
[38] = molecular target: Cyclin-dependent kinase 5 (Homo sapiens) (UniProt Q00535); conditions: Compound concentration 1000.0 nM
[39] = molecular target: SRSF protein kinase 3 (Homo sapiens) (UniProt Q9UPE1); conditions: Compound concentration 1000.0 nM
[40] = molecular target: Casein kinase I isoform gamma-2 (Homo sapiens) (UniProt P78368); conditions: Compound concentration 1000.0 nM
[41] = system: Tyrosine-protein kinase ABL1 (Homo sapiens), P00519 [M351T]; conditions: Compound concentration 1000.0 nM
[42] = molecular target: Fibroblast growth factor receptor 2 (Homo sapiens) (UniProt P21802); conditions: Compound concentration 1000.0 nM
[43] = molecular target: Serine/threonine-protein kinase PRP4 homolog (Homo sapiens) (UniProt Q13523); conditions: Compound concentration 1000.0 nM
[44] = molecular target: Mitogen-activated protein kinase 8 (Homo sapiens) (UniProt P45983); conditions: Compound concentration 1000.0 nM
[45] = molecular target: Calcium/calmodulin-dependent protein kinase type 1B (Homo sapiens) (UniProt Q6P2M8); conditions: Compound concentration 1000.0 nM

Interleukin-1 receptor-associated kinase 4 (Homo sapiens), sequence (Q9NWZ3 whole entry): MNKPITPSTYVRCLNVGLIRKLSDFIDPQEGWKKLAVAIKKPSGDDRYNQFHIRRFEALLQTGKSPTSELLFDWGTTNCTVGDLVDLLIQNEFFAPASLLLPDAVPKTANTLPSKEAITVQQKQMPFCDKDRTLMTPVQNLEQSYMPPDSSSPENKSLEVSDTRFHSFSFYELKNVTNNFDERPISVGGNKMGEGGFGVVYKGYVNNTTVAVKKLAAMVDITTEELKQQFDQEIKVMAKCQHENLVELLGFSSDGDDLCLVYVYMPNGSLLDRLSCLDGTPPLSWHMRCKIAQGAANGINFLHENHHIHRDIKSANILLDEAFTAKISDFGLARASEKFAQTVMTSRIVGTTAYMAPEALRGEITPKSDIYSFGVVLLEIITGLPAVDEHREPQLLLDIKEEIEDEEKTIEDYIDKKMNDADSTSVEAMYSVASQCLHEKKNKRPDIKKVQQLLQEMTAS
Alpha-2B adrenergic receptor (Homo sapiens), sequence (P18089 whole entry, canonical isoform): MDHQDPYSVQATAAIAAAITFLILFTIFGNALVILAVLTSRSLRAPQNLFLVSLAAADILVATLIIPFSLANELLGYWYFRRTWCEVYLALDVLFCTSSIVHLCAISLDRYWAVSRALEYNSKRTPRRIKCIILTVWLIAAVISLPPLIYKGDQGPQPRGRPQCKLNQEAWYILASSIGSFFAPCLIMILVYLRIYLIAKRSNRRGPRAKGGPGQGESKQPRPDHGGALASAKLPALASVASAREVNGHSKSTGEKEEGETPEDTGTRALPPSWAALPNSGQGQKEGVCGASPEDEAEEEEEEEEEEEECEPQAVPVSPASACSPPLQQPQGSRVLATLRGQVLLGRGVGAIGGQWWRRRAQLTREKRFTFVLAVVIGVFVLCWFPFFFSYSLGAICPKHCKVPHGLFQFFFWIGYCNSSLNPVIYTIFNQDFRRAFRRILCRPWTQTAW
Cyclin-dependent kinase 15 (Homo sapiens), sequence (Q96Q40 whole entry): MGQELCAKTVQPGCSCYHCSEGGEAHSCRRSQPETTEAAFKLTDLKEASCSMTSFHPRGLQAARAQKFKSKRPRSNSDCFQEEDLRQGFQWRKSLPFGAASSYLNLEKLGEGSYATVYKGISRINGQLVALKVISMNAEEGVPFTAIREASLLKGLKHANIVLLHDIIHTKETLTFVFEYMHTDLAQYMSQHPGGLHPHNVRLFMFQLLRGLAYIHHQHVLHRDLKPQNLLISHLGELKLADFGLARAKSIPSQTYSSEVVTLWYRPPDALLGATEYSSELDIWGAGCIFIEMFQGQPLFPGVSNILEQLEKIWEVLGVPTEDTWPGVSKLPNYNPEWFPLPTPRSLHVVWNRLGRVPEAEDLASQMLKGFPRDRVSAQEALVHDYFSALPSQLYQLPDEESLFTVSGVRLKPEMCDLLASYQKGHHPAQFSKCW
Tyrosine-protein kinase BTK (Homo sapiens), sequence (Q06187 whole entry): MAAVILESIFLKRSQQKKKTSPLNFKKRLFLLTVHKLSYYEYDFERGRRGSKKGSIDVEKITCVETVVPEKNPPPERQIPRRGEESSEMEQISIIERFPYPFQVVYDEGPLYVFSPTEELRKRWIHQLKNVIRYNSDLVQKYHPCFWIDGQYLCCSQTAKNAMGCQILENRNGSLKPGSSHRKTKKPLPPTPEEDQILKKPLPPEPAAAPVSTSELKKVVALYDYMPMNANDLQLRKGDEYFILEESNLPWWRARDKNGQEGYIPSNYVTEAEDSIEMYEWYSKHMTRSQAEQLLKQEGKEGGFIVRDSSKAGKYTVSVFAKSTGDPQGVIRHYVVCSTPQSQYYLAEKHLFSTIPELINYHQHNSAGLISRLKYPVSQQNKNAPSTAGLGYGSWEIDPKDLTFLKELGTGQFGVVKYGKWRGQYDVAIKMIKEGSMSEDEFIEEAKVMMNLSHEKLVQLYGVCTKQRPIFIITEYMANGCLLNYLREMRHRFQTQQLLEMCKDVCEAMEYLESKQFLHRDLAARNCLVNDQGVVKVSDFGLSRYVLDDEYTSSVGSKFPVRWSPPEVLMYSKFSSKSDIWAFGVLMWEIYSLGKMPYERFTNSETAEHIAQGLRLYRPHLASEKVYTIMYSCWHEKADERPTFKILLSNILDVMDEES
Serine/threonine-protein kinase 4 (Homo sapiens), sequence (Q13043 whole entry): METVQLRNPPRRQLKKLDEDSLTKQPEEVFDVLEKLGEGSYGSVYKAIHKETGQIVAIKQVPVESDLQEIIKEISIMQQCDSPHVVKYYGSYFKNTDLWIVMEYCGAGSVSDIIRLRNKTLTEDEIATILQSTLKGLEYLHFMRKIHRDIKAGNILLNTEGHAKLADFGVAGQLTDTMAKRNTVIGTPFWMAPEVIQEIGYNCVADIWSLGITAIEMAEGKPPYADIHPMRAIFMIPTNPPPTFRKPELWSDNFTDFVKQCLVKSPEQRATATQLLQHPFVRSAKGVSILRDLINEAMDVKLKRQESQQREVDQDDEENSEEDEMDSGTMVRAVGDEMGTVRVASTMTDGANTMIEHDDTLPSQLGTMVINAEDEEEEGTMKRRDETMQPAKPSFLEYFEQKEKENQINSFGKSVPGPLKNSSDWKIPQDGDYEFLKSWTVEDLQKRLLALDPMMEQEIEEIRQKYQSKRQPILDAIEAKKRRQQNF
Receptor-type tyrosine-protein kinase FLT3 (Homo sapiens), P36888 [UNDEFINED MUTATION], sequence (P36888 whole entry, looked up, change not shown): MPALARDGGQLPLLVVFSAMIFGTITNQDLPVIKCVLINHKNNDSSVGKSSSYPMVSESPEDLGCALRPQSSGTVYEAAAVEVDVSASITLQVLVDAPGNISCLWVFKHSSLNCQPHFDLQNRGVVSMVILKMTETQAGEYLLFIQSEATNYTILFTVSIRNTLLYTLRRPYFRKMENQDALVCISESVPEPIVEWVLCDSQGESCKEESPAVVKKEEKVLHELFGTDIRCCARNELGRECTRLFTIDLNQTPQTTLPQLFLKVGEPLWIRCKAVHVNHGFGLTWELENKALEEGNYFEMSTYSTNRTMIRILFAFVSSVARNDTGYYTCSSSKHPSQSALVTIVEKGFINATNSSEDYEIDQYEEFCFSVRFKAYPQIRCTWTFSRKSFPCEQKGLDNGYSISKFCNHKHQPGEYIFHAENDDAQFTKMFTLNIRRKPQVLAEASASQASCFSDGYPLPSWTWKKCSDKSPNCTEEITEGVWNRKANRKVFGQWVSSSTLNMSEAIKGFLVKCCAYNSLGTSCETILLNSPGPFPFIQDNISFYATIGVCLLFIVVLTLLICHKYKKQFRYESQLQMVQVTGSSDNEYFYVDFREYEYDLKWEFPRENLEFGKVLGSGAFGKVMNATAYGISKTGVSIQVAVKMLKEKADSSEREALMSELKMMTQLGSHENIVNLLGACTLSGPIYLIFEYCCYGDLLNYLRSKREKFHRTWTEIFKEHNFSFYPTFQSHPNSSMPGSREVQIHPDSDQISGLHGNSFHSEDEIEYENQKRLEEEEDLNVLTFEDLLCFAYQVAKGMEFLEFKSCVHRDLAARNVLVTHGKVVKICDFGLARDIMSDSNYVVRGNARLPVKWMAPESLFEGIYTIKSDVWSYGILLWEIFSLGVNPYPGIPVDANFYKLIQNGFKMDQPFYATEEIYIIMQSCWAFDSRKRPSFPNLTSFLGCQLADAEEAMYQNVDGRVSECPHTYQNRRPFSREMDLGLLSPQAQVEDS
Receptor-type tyrosine-protein kinase FLT3 (Homo sapiens), sequence (P36888 whole entry): as the sequence (P36888 whole entry, looked up, change not shown) above
Mitotic checkpoint serine/threonine-protein kinase BUB1 (Homo sapiens), sequence (O43683 whole entry, looked up): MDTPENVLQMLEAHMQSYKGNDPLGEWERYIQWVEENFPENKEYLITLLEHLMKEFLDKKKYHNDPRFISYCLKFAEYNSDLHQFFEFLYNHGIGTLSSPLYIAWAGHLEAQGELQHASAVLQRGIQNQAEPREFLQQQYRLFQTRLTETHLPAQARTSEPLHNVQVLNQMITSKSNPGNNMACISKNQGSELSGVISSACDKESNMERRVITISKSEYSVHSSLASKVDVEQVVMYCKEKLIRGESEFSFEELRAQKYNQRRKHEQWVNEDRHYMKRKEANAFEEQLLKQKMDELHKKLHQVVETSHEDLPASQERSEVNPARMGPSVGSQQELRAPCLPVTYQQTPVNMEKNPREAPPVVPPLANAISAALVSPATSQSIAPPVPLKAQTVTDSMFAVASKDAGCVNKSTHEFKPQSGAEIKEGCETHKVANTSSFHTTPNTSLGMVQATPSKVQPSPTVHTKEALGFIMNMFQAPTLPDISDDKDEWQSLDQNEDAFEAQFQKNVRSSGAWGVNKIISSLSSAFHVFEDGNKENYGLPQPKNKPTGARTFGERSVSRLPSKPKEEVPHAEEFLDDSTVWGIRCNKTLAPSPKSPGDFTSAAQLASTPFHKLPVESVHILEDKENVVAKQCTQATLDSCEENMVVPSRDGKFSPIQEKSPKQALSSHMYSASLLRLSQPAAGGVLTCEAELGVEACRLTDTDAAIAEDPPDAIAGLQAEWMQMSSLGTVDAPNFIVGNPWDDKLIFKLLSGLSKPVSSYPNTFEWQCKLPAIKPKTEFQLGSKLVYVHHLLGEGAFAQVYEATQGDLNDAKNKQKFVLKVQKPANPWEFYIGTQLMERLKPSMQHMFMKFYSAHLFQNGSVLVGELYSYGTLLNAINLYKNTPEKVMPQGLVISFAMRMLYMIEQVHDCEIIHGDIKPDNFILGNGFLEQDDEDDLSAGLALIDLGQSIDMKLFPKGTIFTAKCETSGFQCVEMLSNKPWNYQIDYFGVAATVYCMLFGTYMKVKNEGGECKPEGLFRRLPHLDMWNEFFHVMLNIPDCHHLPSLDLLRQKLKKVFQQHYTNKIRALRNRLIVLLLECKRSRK
Cyclin-dependent kinase 5 (Homo sapiens), sequence (Q00535 whole entry, looked up): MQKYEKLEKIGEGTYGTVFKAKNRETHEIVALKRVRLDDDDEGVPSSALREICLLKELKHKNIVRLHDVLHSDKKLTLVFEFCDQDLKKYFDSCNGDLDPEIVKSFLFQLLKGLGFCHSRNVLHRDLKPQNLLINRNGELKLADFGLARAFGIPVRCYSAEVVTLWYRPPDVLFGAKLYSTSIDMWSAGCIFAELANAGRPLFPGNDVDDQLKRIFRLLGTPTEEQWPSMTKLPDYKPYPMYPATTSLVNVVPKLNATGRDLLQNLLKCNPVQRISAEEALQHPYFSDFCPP

Cc1nccc(COC(=O)N2C[C@@H]3[C@@H](CNC(=O)c4ccc5[nH]nnc5c4)[C@@H]3C2)n1 [BI 3017]
inactive: residual activity [1] 100% | residual activity [2] 89% | residual activity [3] 100% | residual activity [4] 84% | residual activity [5] 100% | residual activity [6] 94% | residual activity [7] 100% | residual activity [8] 99% | residual activity [9] 79% | residual activity [10] 93% | residual activity [11] 100% | inhibition [12] -7.15% | residual activity [13] 87% | residual activity [14] 82% | residual activity [15] 92% | residual activity [16] 97% | residual activity [17] 90% | residual activity [18] 79% | residual activity [19] 92% | residual activity [20] 99% | residual activity [21] 83% | residual activity [22] 80% | residual activity [23] 100% | residual activity [24] 100% | inhibition [25] 9.03% | residual activity [26] 54% | inhibition [27] 13.2% | residual activity [28] 84% | residual activity [29] 78% | residual activity [30] 100% | residual activity [31] 86% | residual activity [32] 90% | inhibition [33] 1.15% | residual activity [34] 92% | residual activity [35] 100% | residual activity [36] 100% | residual activity [37] 100% | residual activity [38] 100% | residual activity [39] 100% | residual activity [40] 96% | residual activity [41] 95% | residual activity [42] 78% | residual activity [43] 95% | residual activity [44] 84% | residual activity [45] 83%

O=C(NC[C@@H]1[C@H]2CN(C(=O)OCc3cc(C(F)(F)F)cc(C(F)(F)F)c3)C[C@@H]12)c1ccc2[nH]nnc2c1 [BI 2545]
inactive: residual activity [1] 64% | residual activity [2] 93% | residual activity [3] 100% | residual activity [4] 98% | residual activity [5] 100% | residual activity [6] 91% | residual activity [7] 100% | residual activity [8] 100% | residual activity [9] 88% | residual activity [10] 97% | residual activity [11] 100% | inhibition [12] 15.5% | residual activity [13] 100% | residual activity [14] 99% | residual activity [15] 100% | residual activity [16] 100% | residual activity [17] 61% | residual activity [18] 84% | residual activity [19] 76% | residual activity [20] 100% | residual activity [21] 100% | residual activity [22] 81% | residual activity [23] 100% | residual activity [24] 75% | inhibition [25] -5.26% | residual activity [26] 100% | inhibition [27] 33.2% | residual activity [28] 98% | residual activity [29] 81% | residual activity [30] 100% | residual activity [31] 90% | residual activity [32] 86% | inhibition [33] 25.2% | residual activity [34] 74% | residual activity [35] 99% | residual activity [36] 100% | residual activity [37] 100% | residual activity [38] 100% | residual activity [39] 100% | residual activity [40] 100% | residual activity [41] 98% | residual activity [42] 100% | residual activity [43] 100% | residual activity [44] 90% | residual activity [45] 100%
